The source of these data is patent US20260000078A1, “ANTI-MICROBIAL SYSTEM” (The Procter & Gamble Company, priority 2024, published 2026).

Values after ≈ are worked out from the molar mass of the structure shown.

Common to all, as to type: cell-based
Test [1] deals with Staphylococcus aureus ATCC #6538. Put plainly: Minimum Inhibitory Concentration (MIC) assay with Minimum Biocidal Concentration (MBC). The following applies: solvent DMSO; for MBC / MIC: Staphylococcus aureus, ATCC6538; for MBC: read-out: S. aureus MBC (ppm); for MIC: 24±2 hrs at 35° C., OD<50% of growth control, read-out: S. aureus MIC (ppm). The method, then:
The Minimum Inhibitory Concentration (MIC) assay is a 96-well high throughput method that determines the minimum concentration of an active required to inhibit the growth of microorganisms. Compounds are evaluated against the following microorganisms: Staphylococcus aureus ATCC #6538 (American Type Culture Collection, Manassas, Virginia, USA). To prepare solutions, the bacteria are streaked on Tryptic Soy Agar (TSA, Becton Dickinson DIFCO™ Tryptic Soy Agar, Franklin Lakes, NJ, USA) and incubated at 30-35° C. for 18-24 hrs. Confluent growth is transferred to saline (0.85% NaCl and turbidometrically adjusted to a target concentration of 10^7-10^8 CFU/ml. This inoculum solution is further diluted 1:1000 in Tryptic Soy Broth (TSB, Becton Dickinson, Franklin Lakes, NJ, USA) for assay use. Two-fold serial dilutions are prepared in Dimethylsulfoxide (DMSO, Thermo Scientific Pierce DMSO, Sequencing Grade) or sterile water for each test sample. In a sterile 96-well plate, each dilution is further diluted in broth inoculum such that each well contained 5% dilution and 95% broth inoculum. Bacteria and yeast plates were incubated on an orbital shaker (Heidolph Titramax 1000 Vibrating Platform Shaker, 200-300 rpm) for 24±2 hrs at 35° C. After incubation, the optical density (OD) of each well is measured in a spectrophotometer (Victor Nivo Multimode Plate Reader) at 600 nm. […] The MBC was determined as the most dilute concentration with no visible growth.

Test [2] has as its system Staphylococcus aureus ATCC 6538. Put plainly: Minimal Kill Concentration (MKC) assay, 96 well plate. The following applies: 20-minute contact time. As for the experimental part: (§1) The MKC assay is a 96 well plate method to determine the minimum concentration of a test material or composition needed to kill Gram-negative and Gram-positive bacteria (Escherichia coli ATCC 8739 and Staphylococcus aureus ATCC 6538, respectively). The bacterial suspensions are prepared from 10× freezer stocks with 15% glycerol. The freezer stocks are centrifuged at 13,000×g (Eppendorf Centrifuge […] No. 5417 05483) for 1 minute. The supernatant is removed, and the cell pellet is resuspended in 1 mL saline (Sodium chloride solution 0.9%, Cytiva REF: Z1376), and then transferred to 9 mL saline. The target cfu/ml is 10^8, which is confirmed via serial diluting and plating on TSA plates (Tryptic Soy Agar-Sigma-Aldrich Cat #22091). Then 50 μL of bacteria is added to each well of a 96 well 0.5 mL V-Bottom plate (Greiner bio-one REF: 786201) to make a bacteria plate, one separate plate for each bacterium. The dilutions of the test compounds are prepared in a separate 96 well plate. The test compounds are tested at six dilutions in duplicates or with no replication diluted across the entire plate. The test compounds are prepared in Dimethyl Sulfoxide (Sigma Aldrich GR ACS Cat. No: MX1458-6) or sterile water at 2× the intended test concentration, and then serially diluted in the appropriate vehicle 1:2 across the plate using a multichannel. 50 μL from the test compound plate is added to each well in the bacteria plate all at once using an Integra VIAFLOW 96 channel pipette (Model: VIAFLO 96) and the Integra 300 μL Head (Part No. 6103). With addition of the 2× compounds bacteria plate, the compounds are diluted to a 1× test concentration. The addition of the test compounds to the bacteria wells starts the 20-minute contact time. The plates are mixed well using a Mix-Mate (Eppendorf SE). After 20 minutes, 1 μL from each well of the bacteria plate is transferred to premade Tryptic Soy Agar (TSA) plates (OmniTray Cell Culture Treated w/Lid Sterile, Cat. No: 165218) for spot plating using the Integra VIAFLOW 96 with the Integra 12.5 μL head (Part No. 6101). Then 4 μL from each well of the bacteria/compound plate is transferred to another 96 well plate containing 36 μL of neutralizer broth Modified Letheen Broth (BD Difco Letheen Broth, Modified REF 263010). The contact time is stopped at 20 minutes once the compound plate is neutralized. The plates are mixed well using a Mix-Mate and then 1 μL of the neutralizer+sample mix is transferred to a TSA OmniTray plate using the Integra VIAFLOW and Integra 12.5 μL head. The TSA spot plates are then incubated overnight for 20 hours at 37° C. in an Incubator. This process is done for both bacteria species. After overnight incubation, the plates are removed from the incubator and the results recorded by observing which dilutions had bacterial kill/growth. The last dilution that had kill for both replicates is recorded as the MKC. A positive control of Benzalkonium chloride (Sigma Aldrich Cat. No.: 12060-5G) and vehicle controls are always included in the test.

The subject of test [3] is Escherichia coli ATCC 8739. The test is described as above. The following applies: 20-minute contact time. The method, then:
as §1

Where [4] appears, read: most dilute concentration with no visible growth on neutralizing agar.

Turning to `CCCCCCCC(O)CC(=O)O` (racemic) [(±)-3-Hydroxydecanoic acid], the minimum bactericidal concentration (MBC) in test [1] (setting [4]) was greater than 1130 µg/mL. The “MKC (ppm) S. aureus” value in test [2] (solvent water) was found to be 753 ppm. In test [3] (solvent water), the “MKC (ppm) E. coli” value came to 753 ppm.
Take `CCCCCC(O)CC(=O)O` (racemic) [(±)-3-Hydroxyoctanoic acid]: the “MKC (ppm) S. aureus” value in test [2] (solvent water) is listed as greater than 641 ppm. For the same compound, the “MKC (ppm) E. coli” value in test [3] (solvent water) is recorded as greater than 641 ppm.
As for `CCCCCCCCCC(O)CC(=O)O` (racemic) [DL-β-Hydroxylauric acid], the “S. aureus MBC (ppm)” value in test [1] (setting [4]) stood at 650 ppm. The “MKC (ppm) S. aureus” value in test [2] (solvent water) is greater than 865 ppm. The “MKC (ppm) E. coli” value in test [3] (solvent water) is reported as greater than 865 ppm.
Consider `CCCCCCCCCCCC(O)CC(=O)O` (racemic) [DL-β-Hydroxymyristic acid], for which the “MKC (ppm) S. aureus” value in test [2] (solvent DMSO) is 244 ppm. The “MKC (ppm) E. coli” value in test [3] (solvent DMSO) is on record as 122 ppm.
As to `CCCCCCCCCCCCCC(O)CC(=O)O` (racemic) [DL-β-Hydroxypalmitic acid], the “MKC (ppm) S. aureus” value in test [2] (solvent DMSO) is listed as greater than 1090 ppm. Besides, the “MKC (ppm) E. coli” value in test [3] (solvent DMSO) was found to be 136 ppm.
Turning to `CCCCCCCCC[C@@H](O)CC(=O)O` [(3R)-3-hydroxydodecanoic acid], the “MKC (ppm) S. aureus” value in test [2] (solvent water) is 865 ppm. Further, in test [3] (solvent water), the “MKC (ppm) E. coli” value is listed as greater than 865 ppm.
For `CCCCCC(CC(=O)O)O[C@@H]1O[C@@H](C)[C@H](O)[C@@H](O)[C@H]1O` (stereo partly drawn) [RhaC8, 3-(((2R,3R,4R,5R,6S)-3,4,5-trihydroxy-6-methyltetrahydro-2H-pyran-2-yl)oxy)octanoic acid], in test [1], the MIC is 10000 µg/mL (≈ 32.6 mM). In test [1] (setting [4]), the MBC is greater than 10000 µg/mL. Further, the “MKC (ppm) S. aureus” value in test [2] (solvent water) is given as greater than 1225 ppm. Also, the “MKC (ppm) E. coli” value in test [3] (solvent water) is listed as greater than 1225 ppm.
Turning to `CCCCCCCC(CC(=O)O)O[C@@H]1O[C@@H](C)[C@H](O)[C@@H](O)[C@H]1O` (stereo partly drawn) [RhaC10, 3-(((2R,3R,4R,5R,6S)-3,4,5-trihydroxy-6-methyltetrahydro-2H-pyran-2-yl)oxy)decanoic acid], the minimal inhibitory concentration (MIC) in test [1] was greater than 10000 µg/mL. Moreover, the MBC in test [1] (setting [4]) is greater than 10000 µg/mL. The “MKC (ppm) S. aureus” value in test [2] (solvent water) was greater than 1338 ppm. In addition, the “MKC (ppm) E. coli” value in test [3] (solvent water) was greater than 1338 ppm.
In the case of `CCCCCCCCCC(CC(=O)O)O[C@@H]1O[C@@H](C)[C@H](O)[C@@H](O)[C@H]1O` (stereo partly drawn) [RhaC12, 3-(((2R,3R,4R,5R,6S)-3,4,5-trihydroxy-6-methyltetrahydro-2H-pyran-2-yl)oxy)dodecanoic acid], the minimum inhibitory concentration (MIC) in test [1] is 1250 µg/mL (≈ 3.45 mM). For the same compound, in test [1] (setting [4]), the MBC was greater than 10000 µg/mL. In addition, in test [2] (solvent water), the “MKC (ppm) S. aureus” value came to 725 ppm. In addition, the “MKC (ppm) E. coli” value in test [3] (solvent water) is greater than 1450 ppm.
Turning to `CCCCCCCCCCCC(CC(=O)O)O[C@@H]1O[C@@H](C)[C@H](O)[C@@H](O)[C@H]1O` (stereo partly drawn) [RhaC14, 3-(((2R,3R,4R,5R,6S)-3,4,5-trihydroxy-6-methyltetrahydro-2H-pyran-2-yl)oxy)tetradecanoic acid], the MIC in test [1] is 625 µg/mL (≈ 1.6 mM). Also, the MBC in test [1] (setting [4]) is greater than 10000 µg/mL. For the same compound, the “MKC (ppm) S. aureus” value in test [2] (solvent DMSO) is given as 781 ppm. Moreover, in test [3] (solvent DMSO), the “MKC (ppm) E. coli” value is on record as 781 ppm.

Usually MBC stands for the lowest tested concentration that kills the bacteria rather than only halting them. In general, MIC refers to the lowest concentration that inhibits growth of the organism.
